Reference: patent publication US9169241B2, “Quinolinyloxyphenylsulfonamides” (Max-Planck-Gesellschaft Zur Forderung der Wissenschaften …, priority 2009, dated 2015)

Experiments:
[1] = biological target: T1, wild type AXL (wtAXL) receptor tyrosine kinase (Homo sapiens, UniProt P30530); experiment: NIH-3T3-AXL cellular kinase assay (pY-AXL-ELISA); format: cell-based; details: NIH-3T3-AXL (clone 22) cells, serum depleted, compounds 1 h; Table Ia
T1 construct: WtAXL cDNA was cloned into vector pLXSN(ESK) and transfected into Phoenix E packaging cells; expressed in transfected cells; host or cells: NIH3T3 N7 (mouse fibroblasts), retrovirally infected, clone 22
T1 sequence (P30530 26-894): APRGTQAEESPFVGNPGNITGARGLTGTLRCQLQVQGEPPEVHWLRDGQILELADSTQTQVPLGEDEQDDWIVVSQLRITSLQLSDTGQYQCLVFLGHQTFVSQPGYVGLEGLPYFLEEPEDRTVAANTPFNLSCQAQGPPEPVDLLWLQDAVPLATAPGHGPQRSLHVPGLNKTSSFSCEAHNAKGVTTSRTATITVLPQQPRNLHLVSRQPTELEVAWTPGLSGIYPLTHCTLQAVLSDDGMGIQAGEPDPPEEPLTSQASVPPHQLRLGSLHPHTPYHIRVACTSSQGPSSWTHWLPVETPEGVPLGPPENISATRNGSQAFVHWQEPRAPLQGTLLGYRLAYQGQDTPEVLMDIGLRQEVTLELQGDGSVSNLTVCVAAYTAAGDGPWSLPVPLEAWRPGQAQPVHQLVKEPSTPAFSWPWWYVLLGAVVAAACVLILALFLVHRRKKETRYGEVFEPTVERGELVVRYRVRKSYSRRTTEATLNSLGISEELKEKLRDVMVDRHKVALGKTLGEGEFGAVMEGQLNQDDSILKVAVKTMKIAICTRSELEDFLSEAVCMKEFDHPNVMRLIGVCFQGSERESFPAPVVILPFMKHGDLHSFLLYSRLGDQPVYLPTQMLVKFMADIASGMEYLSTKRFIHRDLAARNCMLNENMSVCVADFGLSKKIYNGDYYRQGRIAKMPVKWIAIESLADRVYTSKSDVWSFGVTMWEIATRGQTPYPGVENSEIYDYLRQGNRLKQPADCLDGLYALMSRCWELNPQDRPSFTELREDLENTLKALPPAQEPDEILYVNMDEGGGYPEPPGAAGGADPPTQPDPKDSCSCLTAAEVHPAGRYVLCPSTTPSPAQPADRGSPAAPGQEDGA
How it was run: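 Phospho-AXL was quantified by ELISA in lysates (4G10-biotin, streptavidin-AP, AttoPhos, 430/560 nm read at 90 min). The cells were monoclonal NIH3T3 lines stably transduced with human wtAXL, exposed to serial compound dilutions for 1 h before lysis.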

[2] = system: Hs578T; experiment: Cell vitality assay (ATP assay, CellTiter-Glo); format: cell-based; details: Homo sapiens, Hs-578T; HS578T cell line, 72 h; Table Ib; read-out: IC50 ATP-Assay HS578T after 72 h
How it was run: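 ATP-based luminescence (CellTiter-Glo) after 72 h exposure of 1000 cells/well to seven compound concentrations from 0.195 to 12.5 μM. IC50 defined as concentration reducing ATP to 50% of DMSO control.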

[3] = system: Hs578T; experiment: Wound healing migration assay; format: cell-based; details: Homo sapiens, Hs-578T; HS578T cell line; Table Ib
How it was run: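 Compound exposure at 12.5, 6.25 and 3.125 μM, with DMSO control, on scratch-wounded monolayers (150000 cells/24 well, overnight). Wound closure imaged by microscopy, fixed with crystal violet after 48 h or 72 h depending on cell line; IC50 is the concentration giving 50% wound size between t0 and t48/t72.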

[4] = system: Hs578T; experiment: Matrigel outgrowth assay/branching assay; format: cell-based; details: Homo sapiens, Hs-578T; HS578T cell line; Table Ib; read-out: Total branching inhibition in Matrigel HS578T
How it was run: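 Matrigel 3 mg/ml, polymerized 1 h 37° C; 5000 cells/well + cmpd 3.125/1.56/0.78 μM or DMSO. Imaged 48/72/96 h, 5× objective. Positive = total branching block.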

| Compound | IC50 [1] [µM] | IC50 [3] [µM] | melting point [°C] | IC50 [2] [µM] | IC50 [4] [µM] |
| --- | --- | --- | --- | --- | --- |
| COc1cc2c(Oc3ccc(Cl)c(NS(=O)(=O)c4c(Cl)cccc4Cl)c3)ccnc2cc1OCCCN1CCC(C)CC1 [Example 198, 2,6-Dichloro-N-(2-chloro-5-{6-methoxy-7-[3-(4-methyl-piperidin-1-yl)-propoxy]-quinolin-4-yloxy}-phenyl)-benzenesulfonamide] | 0.5 to 3 | 12.5 to 50 | 206 to 208 | 12.5 to 50 | 10 to 25 |
| COc1ccc2nccc(Oc3ccc(NS(=O)(=O)c4ccccc4C(F)(F)F)cc3F)c2c1 [Example 201, N-[3-Fluoro-4-(6-methoxy-quinolin-4-yloxy)-phenyl]-2-trifluoromethyl-benzenesulfonamide] | 0.5 to 3 | 12.5 to 50 | 168 to 169 | 12.5 to 50 | 10 to 25 |
| COc1cc2c(Oc3cccc(NS(=O)(=O)c4c(Cl)cccc4Cl)c3)ccnc2cc1OCCCN1CCN(C)CC1 [Example 128, 2,6-Dichloro-N-(3-{6-methoxy-7-[3-(4-methyl-piperazin-1-yl)-propoxy]-quinolin-4-yloxy}-phenyl)-benzenesulfonamide] | 0.5 to 3 | ≤ 12.5 | 111 to 112 | ≤ 12.5 | ≤ 10 |
| COc1cc2c(Oc3ccc(NS(=O)(=O)c4csc5ccccc45)cc3F)ccnc2cc1OCCCN1CCCCC1 [Example 113, Benzo[b]thiophene-3-sulfonic acid {3-fluoro-4-[6-methoxy-7-(3-piperidin-1-yl-propoxy)-quinolin-4-yloxy]-phenyl}-amide] | < 0.5 | ≤ 12.5 | 128 to 130 | ≤ 12.5 | ≤ 10 |
| COc1cc2c(Oc3ccc(NS(=O)(=O)c4cccs4)cc3F)ccnc2cc1OCCCN(C)C [Example 186, Thiophene-2-sulfonic acid {4-[7-(3-dimethylamino-propoxy)-6-methoxy-quinolin-4-yloxy]-3-fluoro-phenyl}-amide] | < 0.5 | ≤ 12.5 | 186 to 188 | ≤ 12.5 | 10 to 25 |
| COc1cc2c(Oc3ccc(NS(=O)(=O)c4ccccc4Cl)cc3F)ccnc2cc1OCCN1CCOCC1 [Example 108, 2-Chloro-N-{3-fluoro-4-[6-methoxy-7-(2-morpholin-4-yl-ethoxy)-quinolin-4-yloxy]-phenyl}-benzenesulfonamide] | < 0.5 | 12.5 to 50 | 180 to 181 | ≤ 12.5 | 10 to 25 |
| COc1cc2c(Oc3ccc(NS(=O)(=O)c4csc5ccccc45)cc3F)ccnc2cc1OCCCN1CCN(C)CC1 [Example 116, Benzo[b]thiophene-3-sulfonic acid (3-fluoro-4-{6-methoxy-7-[3-(4-methyl-piperazin-1-yl)-propoxy]-quinolin-4-yloxy}-phenyl)-amide] | < 0.5 | ≤ 12.5 | 112 to 114 | ≤ 12.5 | 10 to 25 |
| COc1cc2c(Oc3ccc(NS(=O)(=O)c4ccccc4OC(F)(F)F)cc3C)ccnc2cc1OCCCN1CCC(C)CC1 [Example 174, N-(4-{6-Methoxy-7-[3-(4-methyl-piperidin-1-yl)-propoxy]-quinolin-4-yloxy}-3-methyl-phenyl)-2-trifluoromethoxy-benzenesulfonamide] | 0.5 to 3 | ≤ 12.5 | 168 to 169 | ≤ 12.5 | ≤ 10 |
| COc1cc2c(Oc3ccc(NS(=O)(=O)c4ccccc4[N+](=O)[O-])cc3F)ccnc2cc1OCCN1CCOCC1 [Example 109, N-{3-Fluoro-4-[6-methoxy-7-(2-morpholin-4-yl-ethoxy)-quinolin-4-yloxy]-phenyl}-2-nitro-benzenesulfonamide] | < 0.5 | 12.5 to 50 | 129 to 131 | ≤ 12.5 | 10 to 25 |

More lines, main results first:

| IC50 [1] [µM] | IC50 [3] [µM] | melting point [°C] | Compound | IC50 [2] [µM] | IC50 [4] [µM] |
| --- | --- | --- | --- | --- | --- |
| 0.5 to 3 | 12.5 to 50 | 222 to 223 | COc1cc2c(Oc3ccc(NS(=O)(=O)c4cc(F)ccc4F)cc3C)ccnc2cc1OCCCN1CCC(C)CC1 [Example 171, 2,5-Difluoro-N-(4-{6-methoxy-7-[3-(4-methyl-piperidin-1-yl)-propoxy]-quinolin-4-yloxy}-3-methyl-phenyl)-benzenesulfonamide] | 12.5 to 50 | 10 to 25 |
| < 0.5 | ≤ 12.5 | 120 to 122 | COc1cc2c(Oc3ccc(NS(=O)(=O)c4ccc(F)c(F)c4)cc3F)ccnc2cc1OCCCN1CCCC(C)C1 (centres unmarked) [Example 48, 3,4-Difluoro-N-(3-fluoro-4-{6-methoxy-7-[3-(3-methyl-piperidin-1-yl)-propoxy]-quinolin-4-yloxy}-phenyl)-benzenesulfonamide] | ≤ 12.5 | 10 to 25 |
| < 0.5 | 12.5 to 50 | 123 to 126 | COc1cc2c(Oc3ccc(NS(=O)(=O)c4cccc(C(F)(F)F)c4)cc3F)ccnc2cc1OCCCN1CCCCC1 [Example 5, N-{3-Fluoro-4-[6-methoxy-7-(3-piperidin-1-yl-propoxy)-quinolin-4-yloxy]-phenyl}-3-trifluoromethyl-benzenesulfonamide] | ≤ 12.5 | 10 to 25 |
| < 0.5 | 12.5 to 50 | 194 to 196 | COc1cc2c(Oc3ccc(NS(=O)(=O)c4cc(Cl)ccc4Cl)cc3F)ccnc2cc1OCCN1CCOCC1 [Example 106, 2,5-Dichloro-N-{3-fluoro-4-[6-methoxy-7-(2-morpholin-4-yl-ethoxy)-quinolin-4-yloxy]-phenyl}-benzenesulfonamide] | ≤ 12.5 | 10 to 25 |
| < 0.5 | ≤ 12.5 | 118 to 120 | COc1cc2c(Oc3ccc(NS(=O)(=O)c4ccc(Cl)s4)cc3F)ccnc2cc1OCCCN1CCCCC1C (centres unmarked) [Example 145, 5-Chloro-thiophene-2-sulfonic acid (3-fluoro-4-{6-methoxy-7-[3-(2-methyl-piperidin-1-yl)-propoxy]-quinolin-4-yloxy}-phenyl)-amide] | ≤ 12.5 | 10 to 25 |
| < 0.5 | ≤ 12.5 | 123 to 124 | COc1cc2c(Oc3ccc(NS(=O)(=O)c4ccc(Cl)c(Cl)c4)cc3F)ccnc2cc1OCCCN1CCCC(C)C1 (centres unmarked) [Example 52, 3,4-Dichloro-N-(3-fluoro-4-{6-methoxy-7-[3-(3-methyl-piperidin-1-yl)-propoxy]-quinolin-4-yloxy}-phenyl)-benzenesulfonamide] | ≤ 12.5 | ≤ 10 |
| < 0.5 | 12.5 to 50 | 189 to 191 | COc1cc2c(Oc3ccc(NS(=O)(=O)c4cc(Cl)cc(Cl)c4OC)cc3F)ccnc2cc1OCCCN1CCOCC1 [Example 76, 3,5-Dichloro-N-{3-fluoro-4-[6-methoxy-7-(3-morpholin-4-yl-propoxy)-quinolin-4-yloxy]-phenyl}-2-methoxy-benzenesulfonamide] | ≤ 12.5 | 10 to 25 |
